One data set deals with GP IIb/IIIa (Homo sapiens, UniProt P05106+P08514). As to the kind of experiment: Inhibition of ligand binding to GP IIb/IIIa. Particulars: fibrinogen versus fibronectin and vitronectin.
Data set [1] relates to platelets. As to the kind of experiment: Ex vivo platelet aggregation in dogs (Example XII H). Particulars: dog, 10 μg/mL collagen as agonist. As for the experimental part:
More importantly, several peptides in FIG. 23 were administered to dogs (according to the method of Example VII) at doses capable of inhibiting ex vivo platelet aggregation by >95%.
The bleeding time indicated in the parentheses was measured at a five-fold higher concentration of peptide. […]

For a further data set, the system named is coronary thrombosis. As to the kind of experiment: Electrically induced canine coronary thrombosis, time to full occlusion. Type of data set: in vivo. The note with it: dog. As for the experimental part: Male mongrel dogs weighing 14 to 20 kg were selected based on proper aggregation of their platelets in response to arachidonic acid, collagen, and adenosine disphosphate (ADP) and based on similar weights and hemodynamic properties.
Before surgery, the animals were anesthetized with sodium pentobarbital (30 mg/kg, i.v.) and then intubated and ventilated on room air with positive pressure using a respirator (Harvard Apparatus, S. Natick, Mass.) at a volume of 30 ml/kg and a frequency of 12 breaths/min. Surgery, performed under aseptic conditions, was begun with the placement of cannulae into the left carotid artery and jugular vein for monitoring arterial blood pressure (Statham P23 pressure transducer, Gould, Inc., Cardiovascular Products, Oxnard, CA) and administering intravenous fluids.
The heart was exposed via a left thoracotomy through the 5th intercostal space. A 2-cm segment of the left circumflex coronary artery (LCCA) was isolated from surrounding tissue by blunt dissection. […] The intra-coronary electrode was constructed by attaching a 25-gauge hypodermic needle tip to a 30-gauge Teflon-insulated silver-coated copper wire. The mechanical occluder was constructed of stainless steel in a C shape with a Teflon screw (2 mm diameter) on top. It was adjusted to control vessel circumference and decrease the reactive hyperemic flow due to a 10-sec (full) occlusion by 50-70% without affecting basal coronary blood flow (FIG. 1C). A monopolar epicardial electrode was sutured to the surface of the ventricle in the region of LCCA distribution to monitor ischemic changes in the electrocardiogram (ECG). The left atrium was cannulated with polythylene tubing for administration of the peptide. Continuous recordings of blood pressure, limb lead II ECG, epicardial electrogram, and mean and phasic LCCA blood flow were obtained on a Model 7 polygraph (Grass Instrument Co., Quincy, Mass.).
One hour after the completion of surgery, a 100 micro-amp continuous anodal direct current delivered from a 9 volt nickel-cadmium battery was applied to the intimal surface of the LCCA. The anode of the battery was in series with a 250,000 ohm potentiometer and the intraluminal coronary artery electrode. The electric circuit was completed by placing the cathode in a subcutaneous site. Electrical stimulation was applied for three hours. At the conclusion of each experiment, the heart was fibrillated electrically and quickly removed, and the LCCA was dissected free as far as possible to verify the position of the implanted anodal electrode.
(§1) Animals were randomly assigned to two treatment groups: vehicle control (i.e., normal saline) or RGD peptides at various concentrations. Peptides were administered intra-atrially in both bolus and continuous injections. Each bolus injection consisted of 0.5 to 10 mg/kg and was administered 15 minutes before application of the current. A continuous infusion of the same peptide was then started immediately after completion of this initial injection. Animals received a 25 μg/kg/min to 200 μg/kg/min infusion. The anti-thrombotic effects of the peptides were monitored until 30 minutes after the occurrence of a persistent, occlusive thrombus or five hours after the initiation of electrical stimulation (whichever resulted first). If an occlusive thrombus had not developed within four hours after the initiation of current, the peptide infusion was stopped.
Coronary thrombosis was quantified as the time to full occlusion. The effects of the various peptide treatments on coronary thrombosis is illustrated in FIG. 4.

For another data set, the system named is human platelets. As to the kind of experiment: Human platelet aggregation, modified assay (Table II). Type of data set: cell-based. The note with it: human PRP, citrate; aggregating agent collagen, U46619 or ADP. As to the method: In an independent study, a slightly modified aggregation assay was used. Platelet aggregation assays were performed in human platelet rich plasma (PRP). […] The blood was centrifuged at 160×g for 10 minutes at 22° C. and allowed to stand for 5 minutes after which the PRP was decanted. Platelet poor plasma (PPP) was isolated from the remaining blood after centrifugation at 2000×g for 25 minutes. The platelet count of the PRP was diluted to about 300,000 platelets per microliter with PPP.
A 225 μl aliquot of PRP plus 25 μl of either a dilution of the test inhibitor sample or a control (PBS) was incubated for 5 minutes in a Chrono-log Whole Blood Aggregometer at 37° C. An aggregating agent (collagen, 1 μg/ml; U46619, 100 ng/ml; or ADP, 17μM) was added and the transmission was recorded.

In data set [2] the test system is platelets. As to the kind of experiment: ADP-stimulated platelet aggregation in platelet-rich plasma (Table I). The note with it: read-out: ADP-Stimulated Aggregation; ADP 10 μm, citrated platelet-rich plasma, 37° C.; * concentrations unconfirmed by amino acid composition analysis.
Procedure: (§2) Briefly, the change in light transmission was measured through a stirred suspension of platelets in an aggregometer (Model 400 VS, Chrono-Log, Hayertown, Pa., USA). […] In studies using thrombin, the PRP was gel-filtered on Sepharose 2B in divalent ion-free Tyrode's solution containing 2% BSA. For all studies, the reference standard was platelet-poor plasma, which was obtained by centrifuging PRP at 1000×g for 5 min.
(§3) All aggregation studies were performed at 37° C. with a constantly stirred suspension of 3×10^8 platelets/ml. (Platelet count was determined with the aid of a hemacytometer.) Peptides and stimulants were added to these suspensions in 1% dilutions. The PRP and gel-filtered platelets were used within three hours from the time of blood collection.
(§4) Peptide anti-aggregation potencies were determined from dose-responsive curves for the inhibition of the maximum aggregation responses stimulated by physiologic doses of ADP (10 μm) and thrombin (2 U/ml).
Data set [3] is described as follows: Peripheral blood flow (PBF), laser dopler flow probe, rabbit ear. Type of data set: in vivo. The note with it: time 10 min, bolus dose as listed per peptide. As for the experimental part:
Unanesthetized male New Zealand White rabbits (2.5-3.5 kg) were placed in a standard rabbit restrainer. Ears were shaved and a 20G teflon catheter with flowswitch (Viggo) was placed in the medial artery, flushed with saline and locked with 1 ml of heparinized saline ([…]). A 22G catheter (Abbott) fitted with an injection cap (Medex) was placed in the marginal vein of the same ear. Saline or a GP IIb IIIa receptor antagonist, at a concentration of 1 to 3 mg/ml, was infused via the venous catheter. At time 0, 41% of the dose was given as a bolus over 2 minutes. The remainder was continuously infused over the following 60 minutes. Blood samples (3.2 ml) were collected into syringes without needles via the arterial catheter at -10, -5, 10, 45 and 60 minutes. […] The sample was divided into 1.5 ml aliquots and centrifuged at room temperature for 5 seconds at 12,000 G. The resulting platelet rich plasma (PRP) is used to measure ex-vivo platelet aggregation (XPA). […]
In an alternative series of experiments, (Table 2) PBF was measured quantitatively with a laser dopler flow probe (Perimed). The probe was positioned securely over the vascular bed of one ear and flow monitored continuously. Each inhibitor was infused and CBT measured in the opposing ear. No arterial catheter was placed for blood sampling, consequently XPA […] in these animals. […]

Data set [4] concerns platelets. Nature of the data set: Ex vivo platelet aggregation in the canine coronary thrombosis study. The note with it: dog. As for the experimental part: For all ex vivo studies (see FIGS. 3A, 3B1, 3B2, 3B3, 3C1 and 3C2), control aggregation values were standardized to the percentages of light transmission observed in PRP and PPP samples (0% and 100%, respectively).
as §1
Platelet counts and ex vivo aggregation studies were performed one hour before and 1, 3, and 5 hours after application of anodal direct current.
Platelet aggregation was also determined ex vivo at one, three, and five hours after current application. For these studies, arachidonic acid, or collagen was again used to stimulate the platelets.

Data set [5] concerns platelets. Nature of the data set: Thrombin-stimulated platelet aggregation (Table I). The note with it: read-out: Thrombin Stimulated Aggregation; thrombin 2 U/ml, gel-filtered platelets, 37° C.
Procedure: as §2, §3, §4
In another data set the test system is canine platelets. Nature of the data set: Canine platelet aggregation in vitro (ADP, arachidonic acid, collagen). Type of data set: cell-based, dog. The note with it: stimulated by 10 μm ADP, […] arachidonic acid or 9.6 micrograms/ml collagen; read-out: IC50 against canine platelet aggregation.

Some results are limits rather than exact numbers.

Chain of GP IIb/IIIa (P08514 32-887 limits assumed): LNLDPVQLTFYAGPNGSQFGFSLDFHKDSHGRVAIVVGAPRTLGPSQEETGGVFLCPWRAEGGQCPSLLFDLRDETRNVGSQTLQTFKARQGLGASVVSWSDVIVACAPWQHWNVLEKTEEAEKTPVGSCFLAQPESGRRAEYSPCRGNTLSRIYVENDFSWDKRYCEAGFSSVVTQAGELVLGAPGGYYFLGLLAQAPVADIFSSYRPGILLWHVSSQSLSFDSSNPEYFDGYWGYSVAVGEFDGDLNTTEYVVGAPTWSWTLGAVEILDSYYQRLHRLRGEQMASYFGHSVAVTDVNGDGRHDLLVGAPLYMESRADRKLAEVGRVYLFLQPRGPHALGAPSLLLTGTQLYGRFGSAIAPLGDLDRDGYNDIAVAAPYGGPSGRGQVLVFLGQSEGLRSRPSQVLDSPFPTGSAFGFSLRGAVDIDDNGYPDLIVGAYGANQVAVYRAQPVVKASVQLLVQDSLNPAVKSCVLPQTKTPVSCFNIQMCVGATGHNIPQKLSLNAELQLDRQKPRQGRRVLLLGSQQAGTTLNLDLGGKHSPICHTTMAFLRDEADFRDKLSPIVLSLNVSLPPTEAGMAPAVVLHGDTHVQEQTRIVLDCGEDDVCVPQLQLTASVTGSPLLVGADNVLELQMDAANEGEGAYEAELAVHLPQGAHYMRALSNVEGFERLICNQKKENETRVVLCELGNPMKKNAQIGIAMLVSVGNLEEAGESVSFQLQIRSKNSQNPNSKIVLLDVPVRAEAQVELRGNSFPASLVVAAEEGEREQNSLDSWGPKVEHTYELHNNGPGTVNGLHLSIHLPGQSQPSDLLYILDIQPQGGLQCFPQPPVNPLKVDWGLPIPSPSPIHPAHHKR
Chain of GP IIb/IIIa (P08514 891-1039 partner limits assumed): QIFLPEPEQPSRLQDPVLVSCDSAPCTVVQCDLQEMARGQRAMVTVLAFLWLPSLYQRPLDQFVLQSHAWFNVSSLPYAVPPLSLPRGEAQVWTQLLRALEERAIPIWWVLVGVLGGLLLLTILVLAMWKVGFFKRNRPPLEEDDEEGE
Chain of GP IIb/IIIa (P05106 27-788): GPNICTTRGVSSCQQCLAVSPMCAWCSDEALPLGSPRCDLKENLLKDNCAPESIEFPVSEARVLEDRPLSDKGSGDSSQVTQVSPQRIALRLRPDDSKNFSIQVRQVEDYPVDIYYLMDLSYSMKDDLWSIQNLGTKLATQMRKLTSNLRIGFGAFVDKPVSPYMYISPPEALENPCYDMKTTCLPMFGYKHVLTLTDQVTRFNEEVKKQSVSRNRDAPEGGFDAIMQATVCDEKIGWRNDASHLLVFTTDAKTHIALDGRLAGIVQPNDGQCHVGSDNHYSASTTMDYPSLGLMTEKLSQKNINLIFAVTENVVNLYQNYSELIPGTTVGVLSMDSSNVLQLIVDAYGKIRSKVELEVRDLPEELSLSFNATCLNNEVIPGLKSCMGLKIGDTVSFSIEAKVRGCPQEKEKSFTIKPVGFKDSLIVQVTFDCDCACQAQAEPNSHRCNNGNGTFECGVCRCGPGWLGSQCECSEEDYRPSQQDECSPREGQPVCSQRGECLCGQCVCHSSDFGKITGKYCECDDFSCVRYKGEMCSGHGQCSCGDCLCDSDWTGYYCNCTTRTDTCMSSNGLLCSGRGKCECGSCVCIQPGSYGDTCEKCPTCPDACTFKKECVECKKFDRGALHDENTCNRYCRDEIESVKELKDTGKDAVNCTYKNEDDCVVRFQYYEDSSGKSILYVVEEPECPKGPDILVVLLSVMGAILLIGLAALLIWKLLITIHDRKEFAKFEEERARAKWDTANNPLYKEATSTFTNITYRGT

For Ac-CNPRGD(O-Me-Y)RCNH2 [Peptide 8X], the “differential inhibition of ligand binding to GP IIb/IIIa” value at GP IIb/IIIa is “inhibits the binding of fibrinogen to GP IIb/IIIa more than it inhibits the binding of fibronectin and vitronectin to the same integrin”. Further, in the data set with platelets [1], the “ex vivo platelet aggregation inhibited” value was more than 95%.
As to R(Pen)GHRGDWRCR [Peptide 4Q], the “coronary thrombosis, time to full occlusion” value is “significantly prolonged the time to occlusion” with coronary thrombosis (5 mg/kg) and “completely prevented occlusion for the full five-hour experimental period” in the data set with coronary thrombosis (10 mg/kg). Further, the thrombus formation result with coronary thrombosis (5 mg/kg, circulating platelet levels one-third of normal) is reported as “able to prevent thrombus formation”. The IC50 in the data set with human platelets was 3.3 µM; in the data set with platelets [2], 1300 nM; in the data set on platelets [5] it was 1200 nM; in the data set on canine platelets it was 1500 to 5000 nM. The “PBF (units)” value in data set [3] was 9 units. Besides, the “ex vivo platelet activation by collagen” value in the data set with platelets [4] (5 mg/kg injection) was “near-maximal inhibition”. Moreover, the “ex vivo platelet response to ADP and AA” value in the data set on platelets [4] (5 mg/kg injection, all three time points) is “completely unresponsive”. For the same substance, in the data set with platelets [4] (10 mg/kg injection), the “ex vivo platelet aggregation by ADP, AA and collagen” value was “prevented platelet aggregation by all three stimuli at one- and three-hour time points”. Besides, the “ex vivo platelet responsiveness” value with platelets [4] (10 mg/kg, five-hour point) is reported as “platelet responsiveness was slightly improved”.

For the origin of these results see US5672585A, “Method and composition for treating thrombosis” (priority 1995, dated 1997).
